In US20250326748A1, “COMPOUNDS AND METHODS FOR MODULATING SPLICING” (REMIX THERAPEUTICS INC., priority 2022, published 2025):
Like-named read-outs stand apart in the source and are kept apart here.

Key:
[1] = system: HTT mRNA; experiment: Splicing RT-qPCR assay, HTT canonical (CJ) and alternative (AJ) junction mRNA; assay type: cell-based, human; details: Homo sapiens; for IC50: canonical junction mRNA; for AC50: alternative junction mRNA, read-out: HTT AJ (AC50, increase in AJ mRNA)
Method: (§1) Compounds described herein were used to modulate RNA transcript abundance in cells. The expression of a target mRNA was measured by detecting the formation of an exon-exon junction in the canonical transcript (CJ). A compound mediated exon-inclusion event was detected by observing an increase in formation of a new junction with an alternative exon (AJ). Real-time qPCR assays were used to detect these splicing switches and interrogate the potency of various compounds towards different target genes. A high-throughput real time quantitative PCR (RT-qPCR) assay was developed to measure these two isoforms of the mRNA (CJ and AJ) for exemplary genes, such as HTT, SMN2, and MYB, together with a control housekeeping gene, GAPDH or GUSB or PPIA, used for normalization. Briefly, the A673 or K562 cell line was treated with various compounds described herein (e.g., compounds of Formula (D). After treatment, the levels of the HTT, MYB, or SMN2 mRNA targets were determined from each sample of cell lysate by cDNA synthesis followed by qPCR.
(§2) • Cells-to-CT 1-step kit: ThermoFisher A25602, Cells-to-CT lysis reagent: ThermoFisher 4391851C, TaqMan™ Fast Virus 1-Step Master Mix: ThermoFisher 4444436 • GAPDH: VIC-PL, ThermoFisher 4326317E (Assay: Hs99999905_m1)—used for K562/suspension cell lines • GUSB: VIC-PL, ThermoFisher 4326320E (Assay: Hs99999908_m1)—used for K562/suspension cell lines • PPIA: VIC-PL, ThermoFisher 4326316E (Assay: Hs99999904_m1)—used for A673/adherent cell lines
(§3) The A673 cell line was cultured in DMEM with 10% FBS. Cells were diluted with full growth media and plated in a 96-well plate (15,000 cells in 100 ul media per well). The plate was incubated at 37° C. with 5% CO2 for 24 hours to allow cells to adhere. An 11-point 3-fold serial dilution of the compounds was made in DMSO then diluted in media in an intermediate plate. Compounds were transferred from the intermediate plate to the cell plate with the top dose at a final concentration of 10 uM in the well. Final DMSO concentration was kept at or below 0.25%. The cell plate was returned to the incubator at 37° C. with 5% CO2 for an additional 24 hours.
(§4) The K562 cell line was cultured in IMDM with 10% FBS. For K562, cells were diluted with full growth media and plated in either a 96-well plate (50,000 cells in 50 uL media per well) or a 384-well plate (8,000-40,000 cells in 45 uL media per well). An 11-point 3-fold serial dilution of the compounds were made in DMSO then diluted in media in an intermediate plate. Compound was transferred from the intermediate plate to the cell plate with the top dose at a final concentration of 10 uM in the well. Final DMSO concentration was kept at or below 0.25%. Final volume was 100 uL for 96-well plate and 50 uL for 384-well plate. The cell plate was then placed in an incubator at 37° C. with 5% CO2 for 24 hours.
(§5) The cells were then gently washed with 50 uL-100 uL cold PBS before proceeding to addition of lysis buffer. 30 uL-50 μL of room temperature lysis buffer with DNAse I (and optionally RNAsin) was added to each well. Cells were shaken/mixed thoroughly at room temperature for 5-10 minutes for lysis to take place and then 3 uL-5 μL of room temperature stop solution was added and wells were shaken/mixed again. After 2-5 minutes, the cell lysate plate was transferred to ice for RT-qPCR reaction setup. The lysates could also be frozen at −80° C. for later use.
(§6) In some cases, a direct lysis buffer was used. An appropriate volume of 3× lysis buffer (10 mM Tris, 150 mM NaCl, 1.5%-2.5% Igepal and 0.1-1 U/uL RNAsin, pH 7.4) was directly added to either K562 or A673 cells in media and mixed by pipetting 3 times. The plates were then incubated at room temperature with shaking/rocking for 20-50 minutes to allow for lysis to take place. After this time, the cell lysate plate was transferred to ice to set up for the RT-qPCR reactions. The lysates could also be frozen at −80° C. for later use. […]

[2] = system: Target C mRNA; experiment: Splicing RT-qPCR panel, Target C canonical junction (CJ) mRNA; assay type: cell-based, human; details: Homo sapiens, read-out: Target C CJ (decrease in CJ mRNA levels, IC50)
Method: as §1, §3, §4, §5
(§7) In some cases, a direct lysis buffer was used. An appropriate volume of 3× lysis buffer (10 mM Tris, 150 mM NaCl, 1.5%-2.5% Igepal and 0.1-1 U/uL RNAsin, pH 7.4) was directly added to either K562 or A673 cells in media and mixed by pipetting 3 times. The plates were then incubated at room temperature with shaking/rocking for 20-50 minutes to allow for lysis to take place. After this time, the cell lysate plate was transferred to ice to set up for the RT-qPCR reactions. The lysates could also be frozen at −80° C. for later use.
(§8) To set up 10 uL RT-qPCR reactions, cell lysates were transferred to 384-well qPCR plates containing the master mix according to the table below. The plates were sealed, gently vortexed, and spun down before the run. The volumes were adjusted accordingly in some instances where the reaction was carried in 20 μL. The table below summarizes the components of the RT-qPCR reactions:
(§9) The RT-qPCR reaction was performed using a QuantStudio (ThermoFisher) under the following fast cycling conditions. […]

[3] = system: MYB mRNA; experiment: Splicing RT-qPCR assay, MYB canonical (CJ) and alternative (AJ) junction mRNA; assay type: cell-based, human; details: Homo sapiens; for IC50: canonical junction mRNA; for AC50: alternative junction mRNA, read-out: MYB AJ (AC50, increase in AJ mRNA)
Method: as §1, §2, §3, §4, §5, §6

[4] = system: K562 cells; experiment: Cell viability, Cell Titer Glo 2.0 assay, K562; details: 72 hours
[5] = system: SMN2 mRNA; experiment: Splicing RT-qPCR panel, SMN2 canonical junction (CJ) mRNA; assay type: cell-based, human; details: Homo sapiens, read-out: SMN2 CJ (decrease in CJ mRNA levels, IC50)
Method: as §1, §3, §4, §5, §7, §8, §9

[6] = 24 h, RT-qPCR, A673 or K562 cells, 24 hours treatment, read-out: HTT CJ (IC50, decrease in CJ mRNA)
[7] = qPCR panel, read-out: HTT CJ (decrease in CJ mRNA levels, IC50)
[8] = RT-qPCR, A673 or K562 cells, 24 hours treatment
[9] = qPCR panel, read-out: MYB CJ (decrease in CJ mRNA levels, IC50)
[10] = RT-qPCR, A673 or K562 cells, 24 hours treatment, read-out: MYB CJ (IC50, decrease in CJ mRNA)

Row | IC50 [1, 6] [µM] | IC50 [1, 7] [µM] | IC50 [2] [µM] | IC50 [3, 9] [µM] | IC50 [3, 10] [µM] | IC50 [5] [µM] | Structure (SMILES) | AC50 [1, 8] [µM] | AC50 [3, 8] [µM] | Effect on Cell Viability, K562 [4]
1 | 1 to 10 | 1 to 10 | > 10 | < 0.1 | < 0.1 | < 0.1 | Cc1c(O)c(-c2cc(Cl)c3cc(N4C[C@@H](C)NC5(CC5)C4)cnc3n2)cc2cn(C)nc12 [Compound 399] | > 10 | < 0.1 | B (100-1000 nM)
2 | > 10 | > 10 | > 10 | 0.1 to 1 | 0.1 to 1 | < 0.1 | Cc1cn2cc(-c3cc(Cl)c4cc(N5C[C@@H](C)NC6(CC6)C5)cnc4n3)cc(F)c2n1 [Compound 402] | > 10 | 0.1 to 1 | C (1000-9999 nM)
3 | 1 to 10 | 1 to 10 | 1 to 10 | 0.1 to 1 | < 0.1 | < 0.1 | Cc1c(O)c(-c2ccc3c(Cl)c(N4C[C@@H](C)N[C@@H](C)C4)cnc3n2)cc2cn(C)nc12 [Compound 390] | > 10 | < 0.1 | A (<100 nM)
4 | > 10 | > 10 | > 10 | 1 to 10 | 1 to 10 | 0.1 to 1 | CN(c1cnc2nc(-c3cc(F)c4nn(C)cc4c3)ccc2c1)[C@@H]1CCNC1 [Compound 366, 7-(7-fluoro-2-methylindazol-5-yl)-N-methyl-N-[(3R)-pyrrolidin-3-yl]-1,8-naphthyridin-3-amine] | > 10 | 0.1 to 1 | C (1000-9999 nM)
5 | > 10 | > 10 | – | 1 to 10 | 1 to 10 | < 0.1 | Cc1c(N2C[C@@H](C)N[C@@H](C)C2)cnc2nc(-c3cc4cn(C)nc4cc3O)ccc12 [Compound 487] | > 10 | 1 to 10 | –
6 | 0.1 to 1 | 0.1 to 1 | 0.1 to 1 | < 0.1 | < 0.1 | < 0.1 | CNC1CCN(c2cnc3nc(-c4cc5cn(C)nc5c(C)c4O)ccc3c2)C1 (stereo not drawn) [Compound 113, 2,7-dimethyl-5-{6-[3-(methylamino)pyrrolidin-1-yl]-1,8-naphthyridin-2-yl}indazol-6-ol] | 0.1 to 1 | < 0.1 | –
7 | < 0.1 | < 0.1 | < 0.1 | < 0.1 | < 0.1 | < 0.1 | Cn1cc2cc(-c3cnc4cc(C5CCNCC5)cc(F)c4n3)c(O)c(F)c2n1 [Compound 164, 7-fluoro-5-[8-fluoro-6-(piperidin-4-yl)quinoxalin-2-yl]-2-methylindazol-6-ol] | < 0.1 | < 0.1 | –
8 | 0.1 to 1 | 0.1 to 1 | 1 to 10 | 0.1 to 1 | 0.1 to 1 | < 0.1 | Cc1c(O)c(-c2ccc3nc(N4CCNC(C)C4)cnc3n2)cc2cn(C)nc12 (stereo not drawn) [Cmpd 196] | 1 to 10 | < 0.1 | –
9 | > 10 | > 10 | – | 0.1 to 1 | 0.1 to 1 | < 0.1 | Cn1cc2cc(-c3cc(Cl)c4cc(N5CC[C@@H](NC(C)(C)C)C5)cnc4n3)c(O)c(F)c2n1 [Compound 498] | > 10 | 0.1 to 1 | –
10 | 1 to 10 | 1 to 10 | > 10 | 0.1 to 1 | 0.1 to 1 | – | Cc1c(O)c(-c2cc(C3CC3)c3cc(N4C[C@@H](C)N[C@@H](C)C4)cnc3n2)cc2cn(C)nc12 [Compound 374, 5-{4-cyclopropyl-6-[(3R,5S)-3,5-dimethylpiperazin-1-yl]-1,8-naphthyridin-2-yl}-2,7-dimethylindazol-6-ol] | 1 to 10 | 0.1 to 1 | C (1000-9999 nM)
11 | > 10 | > 10 | > 10 | 1 to 10 | 1 to 10 | – | CN1CCC[C@H]2CN(c3cnc4nc(-c5cc(F)c6nn(C)cc6c5)cc(Cl)c4c3)C[C@H]21 [Compound 376, 6-[(4aS,7aS)-1-methyl-hexahydro-2H-pyrrolo[3,4-b]pyridin-6-yl]-4-chloro-2-(7-fluoro-2-methylindazol-5-yl)-1,8-naphthyridine] | > 10 | 1 to 10 | C (1000-9999 nM)
12 | < 0.1 | < 0.1 | – | < 0.1 | < 0.1 | < 0.1 | Cn1cc2cc(-c3cc(Cl)c4cc(N5CC[C@H](NC(C)(C)C)C5)cnc4n3)c(O)c(F)c2n1 [Compound 497] | 0.1 to 1 | < 0.1 | –
13 | 1 to 10 | 1 to 10 | – | < 0.1 | < 0.1 | < 0.1 | C[C@@H]1CN(c2cnc3nc(-c4cc5cn(C)nc5cc4O)ccc3c2Cl)C[C@H](C)N1 [Compound 492] | 1 to 10 | < 0.1 | –
14 | 1 to 10 | 1 to 10 | – | 0.1 to 1 | 0.1 to 1 | < 0.1 | Cn1cc2cc(-c3ccc4c(Cl)c(N5CCNC6(CC6)C5)cnc4n3)c(O)cc2n1 [Compound 500, 5-[5-chloro-6-(4,7-diazaspiro[2.5]octan-7-yl)-1,8-naphthyridin-2-yl]-2-methyl-indazol-6-ol] | 1 to 10 | 0.1 to 1 | –
